The target of the test is T1, Human CaV2.2 channels (Homo sapiens, UniProt Q00975).
T1 construct: expressed in transfected cells; also stably expressing Kir2.3)
Put plainly: Fluorescence assay for CaV2.2 channels using potassium depolarization to induce channel opening (FLIPR, Fluo 4). Format: cell-based. The conditions noted are these: 30 mM KCl assay buffer (inactivated channel state), HEK293 cells; for inhibition at 3 µM: HEK293, 3 μM test compound, read-out: Activity Category: %-Inhib (CaV2.2) @3 μM @30 mM KCl; for Activity Category: %-Inhib (CaV2.2) @3 μM @30 mM KCl: 3 μM test compound. From the text:
In the process, the Ca^2+ influx is quantified in the FLIPR assay with the aid of a Ca^2+-sensitive dye (type Fluo-4, Molecular Probes Europe BV, Leiden, the Netherlands) in a fluorescent imaging plate reader (FLIPR 3, Molecular Devices, Sunnyvale, USA), as described hereinafter.
[drawing 69] 2. Assay Descriptions and Biological Data: 2.1 Fluorescence Assay for CaV2.2 Channels Using Potassium Depolarization to Induce Channel Opening
Human CaV2.2 channels were stably expressed in HEK293 cells together with alpha2-delta and beta subunits of voltage gated calcium channels. In addition, an inwardly rectifying potassium channel (Kir2.3) was stably expressed in these cells to augment control of the cell membrane potential by the concentration of extracellular potassium ions. Raise of the extracellular potassium concentration leads to depolarization of the membrane potential and thus regulates the voltage dependent state of CaV2.2 channels. For preparation, cells were seeded in black poly-D-lysine coated 96-well plates (Becton Dickinson, Biocoat 4640) in 100 μL medium [500 mL DMEM/F-12 plus Glutamax (Invitrogen 31331-093) plus 5.5 mL MEM NEAA 100× (Invitrogen 11140-035) plus 50 mL FBS decomplemented (Invitrogen 10270-106) plus 200 μg/mL Geneticin (Invitrogen 10131-027) plus 50 μg/mL Hygromycin B (Invitrogen 10687-010) plus 2 μg/mL Blasticidin (anti-b15b Invivo-Gen) plus 0.2 μg/mL Puromycin (A 11138-03)] at a cell density of 30.000 cells per well. Plates were incubated at 37° C. (5% CO2) for 20 to 23 h. On the day of experiment medium was discarded and cells were loaded with Fluo 4 by addition of 100 μL of basic assay buffer (10 mM HEPES, 1 mM KCl, 149 mM NaCl, 0.8 mM CaCl2, 1.7 mM MgCl2, 10 mM Glucose, 0.1% BSA. pH 7.4) containing 2 μM Fluo 4 (Molecular Probes; F-14201), 0.01% pluronic acid (Molecular Probes; P-6866) and 2.5 mM probenecid (Molecular Probes; P36400). Cells were incubated in the dark at 25° C. for 60 min. Then dye containing buffer was discarded and 100 μL basic (1 mM KCl) or alternative (30 mM KCl) assay buffer was added. The alternative assay buffer contained altered concentrations of KCl (30 mM) and NaCl (120 mM) and was used in order to promote the inactivated channel state. After that 25 μL of basic or alternative assay buffer with or without test compound were added and cells were incubated again in the dark at 25° C. for 15 min. Fluorescence intensity was measured on a FLIPR 3 instrument (Molecular Devices Corp., Sunnyvale, Calif.) with excitation at 480 nm and emission at 535 nm. After continuously reading fluorescence for 30 sec, 50 μL of basic assay buffer containing 210 mM KCl(NaCl omitted) were added for depolarization. Peak fluorescent signal intensity was determined and the amplitude of the peak signal, normalized to base line, was used to measure channel inhibition by test compounds.

T1 sequence (Q00975 whole entry): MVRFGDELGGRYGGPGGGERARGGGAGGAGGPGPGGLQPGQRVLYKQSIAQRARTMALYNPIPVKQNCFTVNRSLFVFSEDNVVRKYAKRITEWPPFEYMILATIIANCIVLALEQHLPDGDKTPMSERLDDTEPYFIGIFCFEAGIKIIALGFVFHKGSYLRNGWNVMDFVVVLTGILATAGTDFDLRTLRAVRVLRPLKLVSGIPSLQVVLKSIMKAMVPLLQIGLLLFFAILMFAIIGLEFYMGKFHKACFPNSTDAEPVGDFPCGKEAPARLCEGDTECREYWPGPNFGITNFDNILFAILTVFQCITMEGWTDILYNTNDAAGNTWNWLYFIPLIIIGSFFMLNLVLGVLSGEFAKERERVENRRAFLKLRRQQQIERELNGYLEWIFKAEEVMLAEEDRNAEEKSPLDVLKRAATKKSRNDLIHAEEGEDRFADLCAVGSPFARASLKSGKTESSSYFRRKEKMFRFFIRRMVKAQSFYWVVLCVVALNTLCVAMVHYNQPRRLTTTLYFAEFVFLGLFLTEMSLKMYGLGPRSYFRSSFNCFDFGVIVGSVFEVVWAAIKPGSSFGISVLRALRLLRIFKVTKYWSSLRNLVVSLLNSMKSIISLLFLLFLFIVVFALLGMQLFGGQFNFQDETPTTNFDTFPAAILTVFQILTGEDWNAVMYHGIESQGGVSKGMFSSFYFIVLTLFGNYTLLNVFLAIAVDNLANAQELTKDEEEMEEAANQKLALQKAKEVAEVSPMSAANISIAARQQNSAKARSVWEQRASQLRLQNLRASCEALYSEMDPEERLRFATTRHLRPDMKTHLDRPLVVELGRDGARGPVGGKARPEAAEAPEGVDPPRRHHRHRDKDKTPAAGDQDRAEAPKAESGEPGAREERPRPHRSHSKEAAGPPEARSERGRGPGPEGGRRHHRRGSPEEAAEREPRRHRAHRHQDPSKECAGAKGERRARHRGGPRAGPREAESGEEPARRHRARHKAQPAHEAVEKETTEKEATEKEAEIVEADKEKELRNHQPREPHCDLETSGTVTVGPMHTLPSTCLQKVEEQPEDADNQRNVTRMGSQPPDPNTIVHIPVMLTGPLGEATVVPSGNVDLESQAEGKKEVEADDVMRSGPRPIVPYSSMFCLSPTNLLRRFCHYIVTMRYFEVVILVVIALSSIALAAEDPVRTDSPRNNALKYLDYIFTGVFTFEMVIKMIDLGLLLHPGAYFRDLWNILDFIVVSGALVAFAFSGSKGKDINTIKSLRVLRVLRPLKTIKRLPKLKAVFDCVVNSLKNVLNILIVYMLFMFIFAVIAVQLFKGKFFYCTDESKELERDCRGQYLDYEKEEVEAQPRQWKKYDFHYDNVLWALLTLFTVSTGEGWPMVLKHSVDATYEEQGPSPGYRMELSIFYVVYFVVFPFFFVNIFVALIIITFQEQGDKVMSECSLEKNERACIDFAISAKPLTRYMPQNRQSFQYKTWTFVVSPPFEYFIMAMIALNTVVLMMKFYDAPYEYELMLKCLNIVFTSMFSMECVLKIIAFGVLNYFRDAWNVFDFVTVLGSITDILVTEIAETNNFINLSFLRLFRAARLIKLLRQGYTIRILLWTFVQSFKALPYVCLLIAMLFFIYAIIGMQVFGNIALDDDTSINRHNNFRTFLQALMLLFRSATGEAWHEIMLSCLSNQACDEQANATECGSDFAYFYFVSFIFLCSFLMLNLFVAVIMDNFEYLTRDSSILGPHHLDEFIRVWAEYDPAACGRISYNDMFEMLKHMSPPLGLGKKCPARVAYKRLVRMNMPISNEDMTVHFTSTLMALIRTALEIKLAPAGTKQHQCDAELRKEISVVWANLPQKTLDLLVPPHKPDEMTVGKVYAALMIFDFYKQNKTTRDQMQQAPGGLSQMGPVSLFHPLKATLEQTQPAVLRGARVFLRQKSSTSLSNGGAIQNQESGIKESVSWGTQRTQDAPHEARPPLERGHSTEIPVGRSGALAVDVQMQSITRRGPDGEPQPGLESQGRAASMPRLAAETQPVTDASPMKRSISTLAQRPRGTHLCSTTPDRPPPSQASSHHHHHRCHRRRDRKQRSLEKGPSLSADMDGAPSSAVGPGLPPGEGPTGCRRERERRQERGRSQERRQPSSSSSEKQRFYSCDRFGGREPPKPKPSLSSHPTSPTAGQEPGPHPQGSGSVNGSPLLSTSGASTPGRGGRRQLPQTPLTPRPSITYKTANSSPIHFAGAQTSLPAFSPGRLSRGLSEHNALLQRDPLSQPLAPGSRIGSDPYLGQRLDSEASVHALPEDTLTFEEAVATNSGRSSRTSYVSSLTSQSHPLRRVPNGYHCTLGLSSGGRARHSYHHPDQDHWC

`CC1(S(=O)(=O)c2cccc(C(F)(F)F)c2)CCOC(c2cc(CC(F)(F)F)n[nH]2)C1` (racemic) [Example 15 cis-rac, 5-[4-Methyl-4-[[3-(trifluoromethyl)phenyl]sulfonyl]-tetrahydro-pyran-2-yl]-3-(2,2,2-trifluoro-ethyl)-1H-pyrazole]: the inhibition at 3 µM is > 95%.

Regarding `C[C@@]1(S(=O)(=O)c2cccc(C(F)(F)F)c2)CCO[C@@H](c2cc(S(=O)(=O)C(F)F)n[nH]2)C1` (racemic) [[trans-rac] Example 1, 3-(Difluoro-methylsulfonyl)-5-[4-methyl-4-[[3-(trifluoromethyl)phenyl]sulfonyl]-tetrahydro-pyran-2-yl]-1H-pyrazole], the inhibition at 3 µM lay in the range of 75 to 95%. The same measure, in the same setting: under `CC1(S(=O)(=O)c2cccc(C(F)(F)F)c2)CCOC(c2cc(C(F)F)[nH]n2)C1` (racemic) [[trans-rac] Example 12, 5-(Difluoro-methyl)-3-[4-methyl-4-[[3-(trifluoromethyl)phenyl]sulfonyl]-tetrahydro-pyran-2-yl]-1H-pyrazole] stands 75 to 95%.

`CC1(S(=O)(=O)c2cccc(C(F)(F)F)c2)CCOC(c2cc(S(=O)(=O)CC(F)F)n[nH]2)C1` (stereo not drawn) [Example 3 cis-EN1, 3-(2,2-Difluoro-ethylsulfonyl)-5-[4-methyl-4-[[3-(trifluoromethyl)phenyl]sulfonyl]-tetrahydro-pyran-2-yl]-1H-pyrazole]: the inhibition at 3 µM is 30 to 40%. Consider `CC1(S(=O)(=O)c2cccc(C(F)(F)F)c2)CCOC(c2cc(S(=O)(=O)C3COC3)n[nH]2)C1` (stereo not drawn) [Example 4 cis-EN1, 5-[4-Methyl-4-[[3-(trifluoromethyl)phenyl]sulfonyl]-tetrahydro-pyran-2-yl]-3-(oxetan-3-ylsulfonyl)-1H-pyrazole], for which the “Activity Category: %-Inhib (CaV2.2) @3 μM @30 mM KCl” value (shortened to “Activity Category: %-Inhib”) (listed as 4 cis-EN1) was “C (%-Inhibition >40% up to ≤75%)”. As to `CC1(S(=O)(=O)c2cccc(C(F)(F)F)c2)CCOC(c2cc(S(=O)(=O)C3COC3)n[nH]2)C1` (stereo not drawn) [Example 4 cis-EN2, 5-[4-Methyl-4-[[3-(trifluoromethyl)phenyl]sulfonyl]-tetrahydro-pyran-2-yl]-3-(oxetan-3-ylsulfonyl)-1H-pyrazole], where the note is “listed as 4 cis-EN2”, the “Activity Category: %-Inhib” value is reported as “B (%-Inhibition >75% up to ≤95%)”.

For `COCCS(=O)(=O)c1cc(C2CC(C)(S(=O)(=O)c3cccc(C(F)(F)F)c3)CCO2)[nH]n1` (stereo not drawn) [Example 5 cis-EN1, 3-(2-Methoxy-ethylsulfonyl)-5-[4-methyl-4-[[3-(trifluoromethyl)phenyl]sulfonyl]-tetrahydro-pyran-2-yl]-1H-pyrazole], the “Activity Category: %-Inhib” value (listed as 5 cis-EN1) was “B (%-Inhibition >75% up to ≤95%)”. With `COCCS(=O)(=O)c1cc(C2CC(C)(S(=O)(=O)c3cccc(C(F)(F)F)c3)CCO2)[nH]n1` (stereo not drawn) [Example 5 cis-EN2, 3-(2-Methoxy-ethylsulfonyl)-5-[4-methyl-4-[[3-(trifluoromethyl)phenyl]sulfonyl]-tetrahydro-pyran-2-yl]-1H-pyrazole], where the note is “listed as 5 cis-EN2”, the “Activity Category: %-Inhib” value was “C (%-Inhibition >40% up to ≤75%)”. With `CC(C)(c1cc(C2CC(C)(S(=O)(=O)c3cccc(C(F)(F)F)c3)CCO2)[nH]n1)S(C)(=O)=O` (stereo not drawn) [Example 7 cis-EN1, 3-(1-Methyl-1-methylsulfonyl-ethyl)-5-[4-methyl-4-[[3-(trifluoromethyl)phenyl]sulfonyl]-tetrahydro-pyran-2-yl]-1H-pyrazole], the inhibition at 3 µM fell in the range of 75 to 95%.

Take `CC1(S(=O)(=O)c2cccc(C(F)(F)F)c2)CCOC(c2cc(CCS(C)(=O)=O)n[nH]2)C1` (stereo not drawn) [Example 9 cis-EN1, 3-(2-Methylsulfonyl-ethyl)-5-[4-methyl-4-[[3-(trifluoromethyl)phenyl]sulfonyl]-tetrahydro-pyran-2-yl]-1H-pyrazole]: the inhibition at 3 µM is 40 to 75%. In the case of `CC(F)(F)c1cc(C2CC(C)(S(=O)(=O)c3cccc(C(F)(F)F)c3)CCO2)[nH]n1` (stereo not drawn) [Example 13 cis-EN1, 3-(1,1-Difluoro-ethyl)-5-[4-methyl-4-[[3-(trifluoromethyl)phenyl]sulfonyl]-tetrahydro-pyran-2-yl]-1H-pyrazole], the inhibition at 3 µM was > 95%.

The values above are taken from patent US10106530B2, “Pyrazolyl substituted tetrahydropyranylsulfones” (GRÜNENTHAL GMBH, priority 2015, dated 2018).
